Assay results from publication PMC4147587, “Synthesis and Analgesic Effects of μ-TRTX-Hhn1b on Models of Inflammatory and Neuropathic Pain” (Toxins, 2014).
“Also recorded” adds a separate entry of the source. Like-named read-outs stand apart in the source and are kept apart here.

Test system: SNI-induced mechanical allodynia in rats
Format: in vivo, rat (Sprague-Dawley)
Settings: for withdrawal threshold to von Frey hair: 200 μg/kg i.p., mean ± SEM, n = 6
Protocol: The spared nerve injury was produced as described previously by Decosterd and Woolf. The rats (male, weighing 180–220 g) were anesthetized with ketamine (300 mg/kg) and placed on a pad. Aseptic techniques were used, and the sciatic nerve and its three terminal branches, including the sural, common peroneal and tibial nerves, were exposed, ligated and transected. Muscle and skin were closed with 4-0 polydiaxone and wound clips. Sham controls involved the exposure of the sciatic nerve and its branches without any lesion.
Allodynia was assessed 3 days after SNI surgery, and only rats that developed allodynia, as defined by a significant decrease in their mechanical threshold using von Frey filament, were used. Tactile allodynia was assessed with calibrated von Frey filaments (Stoelting, Wood Dale, IL, USA) using an up-down paradigm. Mechanical sensitivity was determined by applying a series of twenty calibrated von Frey filaments (0.008–2 g, 2–60 g) to the plantar aspect of the left hind paw. […] A response was indicated by brisk withdrawal of the hind paw.

## CC[C@H](C)[C@H](NC(=O)[C@H](CCC(=O)O)NC(=O)[C@H](Cc1ccc(O)cc1)NC(=O)[C@H](CCCCN)NC(=O)[C@@H]1CSSC[C@@H]2NC(=O)[C@H](CCC(N)=O)NC(=O)[C@H](CC(=O)O)NC(=O)[C@H](CC(N)=O)NC(=O)[C@H](CO)NC(=O)[C@@H]3CCCN3C(=O)[C@H](CC(N)=O)NC(=O)[C@@H]3CSSC[C@H](NC(=O)[C@H](C(C)C)NC(=O)[C@H](CC(C)C)NC(=O)[C@H](CC(N)=O)NC(=O)[C@H](CO)NC(=O)[C@H](CO)NC(=O)[C@H](CCCCN)NC(=O)[C@H](CSSC[C@H](NC(=O)[C@@H](N)CCC(=O)O)C(=O)N[C@@H](CC(C)C)C(=O)NCC(=O)N[C@@H](Cc4ccccc4)C(=O)NCC(=O)N[C@@H](CCCCN)C(=O)NCC(=O)N3)NC2=O)C(=O)N[C@@H](CO)C(=O)N[C@@H](CCCNC(=N)N)C(=O)N[C@@H](CCCCN)C(=O)N[C@@H](Cc2c[nH]cn2)C(=O)N[C@@H](CCCNC(=N)N)C(=O)N[C@@H](Cc2c[nH]c3ccccc23)C(=O)N1)C(N)=O [μ-TRTX-Hhn1b]
50 µg/kg, 100 µg/kg or 200 µg/kg i.p., n = 6 per group
  reversal of SNI-induced mechanical allodynia: depressed in a dose-dependent manner; also recorded: significantly reversed SNI-induced allodynia
60 min after injection, saline 1.4 ± 0.4 g, p < 0.01
  withdrawal threshold to von Frey hair: 8.8 ± 0.9 g
100 min after injection, p < 0.05
  withdrawal threshold to von Frey hair: 4.0 ± 0.6 g
i.p.
  duration of antinociceptive effect: more than 100 min
  duration of antinociceptive effect relative to mexiletine: about two-fold longer than that of mexiletine
